Publication PMC10703884, “Targeting the COMMD4–H2B protein complex in lung cancer” (British Journal of Cancer, 2023)
“Also recorded” adds a separate entry of the source. No end group written: not given here.

Tests used:
recombinant GST-COMMD4 = target: T1, recombinant GST-COMMD4 (Homo sapiens, UniProt Q9H0A8); experiment: ELISA, binding of H2B peptide and recombinant COMMD4; settings: H2B peptide 10 μg/ml on NeutrAvidin plate 2 h; recombinant GST-COMMD4 at different concentrations 45 min, room temperature; anti-COMMD4 antibody, chemiluminescent substrate
T1 construct: purchased Abnova H00054939-P01
Procedure: ELISA was performed using NeutrAvidin High Binding Capacity Coated 96-Well Plates (Thermo Scientific, 15507) according to the manufacturer’s instructions. Briefly, to the appropriate well, added 100 μl of H2B peptide at 10 μg/ml for 2 h at room temperature. Washed each well three times with NP40 buffer, blocked the plate overnight with 4% BSA in NP40 buffer and the next day added different concentrations of recombinant GST-COMMD4 as shown, for 45 min at room temperature. Washed each well three times with NP40 buffer and added anti-COMMD4 antibody for 45 min at room temperature followed by the enzyme-linked secondary antibody for 30 min at room temperature followed by detection using SuperSignal ELISA Pico Chemiluminescent Substrate (Thermo Scientific, 37070).

HBEC3-KT cells [1] = experiment: Immunofluorescence γH2AX and MDC1 foci, HBEC3-KT cells; type: cell-based, Human; settings: 6 Gy IR, 50 cells per condition, three independent experiments
Procedure: (§1) For siRNA transfections, cells were transfected with negative control or COMMD4 siRNA #2 (CCAUGUCCCUCUCAGCAGA[dT][dT] MISSION® siRNA, Sigma-Aldrich) using RNAiMax (Life Technologies) as previously described and samples were analysed 48 to 72 h post-transfection. The H2B wild-type (FLAG-H2BWT) and mutant (FLAG-H2BMUT1) expression constructs were generated with the 10-amino acid peptide and the corresponding mutant cloned into the expression vector pCDNA3.1/(+)-N-DYK containing an N-terminal FLAG tag and a C-terminal nuclear localisation signal (AAKRVKLDS) (GenScript). A70K FLAG-COMMD4 expression construct was generated by mutating the corresponding COMMD4-FLAG construct to harbour an A70K mutation (GenScript). Cells were mock-transfected, or transfected with FLAG-H2BWT/FLAG-H2BMUT1, or COMMD4-FLAG/A70K with FuGENE® HD (Promega) using the manufacturer’s protocol and analysed 24 h post-transfection.
NSCLC and control cells transfected with siRNA or H2B plasmids were grown in optical glass bottom 96-well plates (Cellvis). Post-treatment, cells were pre-extracted with ice-cold extraction buffer (20 mM HEPES (pH 8), 20 mM NaCl, 5 mM MgCl2, 1 mM ATP, 0.5% NP40), to remove the soluble proteins and processed as previous. […] Images were analysed using the InCarta Image Analysis software (GE Healthcare Life Sciences) where a minimum of 50 nuclei were quantified per experiment. […]

NSCLC cells = experiment: Immunofluorescence γH2AX and MDC1 foci, NSCLC cells; type: cell-based; settings: 6 Gy IR, 0.5 to 2 h post-IR, 50 cells per condition, three independent experiments
Procedure: as §1
NSCLC and control cells transfected with siRNA or H2B plasmids were grown in optical glass bottom 96-well plates (Cellvis). Post-treatment, cells were pre-extracted with ice-cold extraction buffer (20 mM HEPES (pH 8), 20 mM NaCl, 5 mM MgCl2, 1 mM ATP, 0.5% NP40), to remove the soluble proteins and processed as previous. Images were captured using a Delta Vision PDV microscope 100x/1.42 Oil objective (Applied Precision, Inc). All immunofluorescence figures were assembled using Adobe Photoshop. High-content microscopy was performed using the InCell Analyzer 6500 Imaging System (GE Healthcare Life Sciences). Images were analysed using the InCarta Image Analysis software (GE Healthcare Life Sciences) where a minimum of 50 nuclei were quantified per experiment.
Fig. 4 Induction of DSBs in NSCLC and control cells. a Immunofluorescence staining of H1299 NSCLC cells transfected with control or COMMD4 siRNA #2 and FLAG-H2BWT or FLAG-H2BMUT1 is shown. […]
independent experiments where 50 cells were quantified per condition. γH2AX is shown in […]
mean ± SD from three independent experiments where 50 cells were quantified per condition.

[2] = test system: H460, H1299 and CRL5889 NSCLC cells; experiment: Clonogenic cell viability after IR, NSCLC cells; type: cell-based; settings: varying IR doses, 7–10 days recovery, three independent experiments, compared to control siRNA or FLAG-H2BMUT1/mock
Procedure: (§2) H1299, CRL5889 and H460 cells were cultured in Roswell Park Memorial Institute (RPMI) 1640 medium (Life Technologies) containing 10% foetal bovine serum (Thermo Fisher Scientific). Human bronchial epithelial cells (HBEC3-KT) were maintained in keratinocyte serum-free medium supplemented with epidermal growth factor and bovine pituitary extract (Life Technologies). The histology features and origin of all cell lines used have been previously described. Cell lines were authenticated using STR profiling. Cells were grown in a humidified incubator at 37 °C/5% CO2 atmosphere. All cell lines were verified to be free of mycoplasma contamination.
(§3) Irradiations were done at room temperature using a ^137Cs source (Gammacell 40 Exactor [MDS Nordion]; dose rate 1.1 Gy/min). Phalloidin-Atto 488 was purchased from Sigma-Aldrich and Hoechst 33342 was purchased from Thermo Fisher Scientific.
(§4) For siRNA transfections, cells were transfected with negative control or COMMD4 siRNA #2 (CCAUGUCCCUCUCAGCAGA[dT][dT] MISSION® siRNA, Sigma-Aldrich) using RNAiMax (Life Technologies) as previously described and samples were analysed 48 to 72 h post-transfection. […] Cells were mock-transfected, or transfected with FLAG-H2BWT/FLAG-H2BMUT1, or COMMD4-FLAG/A70K with FuGENE® HD (Promega) using the manufacturer’s protocol and analysed 24 h post-transfection. […]

HBEC3-KT cells [3] = experiment: Clonogenic cell viability after IR, HBEC3-KT cells; type: cell-based, Human; settings: varying IR doses, 7–10 days recovery, three independent experiments
Procedure: as §2, §3, §4

HBEC3-KT cells [4] = experiment: Annexin V-FITC / propidium iodide apoptosis, HBEC3-KT cells; type: cell-based, Human; settings: flow cytometry, three independent experiments
Procedure: as §1, with “A70K FLAG-COMMD4 expression construct was generated by mutating the corresponding COMMD4-FLAG construct to harbour an A70K mutation (GenScript).” left out
The Annexin V-FITC apoptosis kit (United Bioresearch, ALX-850-020-K101, Enzo Life Sciences, Farmingdale, NY, USA) was used to measure viable and apoptotic cells, as previously described. […] CytExpert 2.0 software was used for data acquisition and analysed using the FlowJo v10 software.
Fig. 5 Induction of mitotic catastrophe and apoptosis in NSCLC cells. a Emerin and phalloidin staining respectively in three NSCLC and control HBEC3-KT cells. […] Asterix (*) denotes *P < 0.05 and ** P < 0.005 from 100 cells counted. […] The live cells were stained with Annexin V-FITC and propidium iodide and analysed by flow cytometer. […]

[5] = Circular dichroism (CD) of H2B peptides; type: physicochemical; settings: 0.1 mg/ml peptide, 50% TFE, 10 mM phosphate pH 7.2, 50 mM sodium fluoride, 20 °C, average of five scans
Procedure: For Circular Dichroism (CD), […] and H2BMUT1 peptides were resuspended at a concentration of 0.1 mg/ml in 50% 2,2,2-Trifluoroethanol (Sigma, T63002) with 10 mM Phosphate Buffer pH 7.2 and 50 mM sodium fluoride. The buffer solutions were filtered and degassed before diluting the peptides. The peptides were loaded into a 1 mm path-length quartz cuvette. CD spectra were measured at 20 °C in the far-UV from 250 to 190 nm with a Jasco J-1500 spectropolarimeter at a 0.1 nm interval with a 20 nm/min scan rate. All CD data represent an average of five scans, and the background was corrected with the buffer-matched diluent. The results were converted to the units of molar ellipticity vs. wavelength.

COMMD4-H2B interaction = experiment: COMMD4 pull-down competition (COMMD4-H2B interaction); type: biochemical; settings: 1 μg (or amount specified) peptide pre-incubated with recombinant COMMD4 (300 ng) 30 min 4 °C, then 1 μg recombinant H2B 30 min 4 °C, immunoblot
Procedure: 300 ng of recombinant GST-COMMD4 (Abnova, H00054939-P01) was incubated with 1 μg of recombinant H2B (NEB, M2505S) in NP40 buffer for 30 min at 4 °C. For competition experiments, 1 μg (or the amount specified) of the N-terminal biotin-tagged H2B peptide (GenScript) was pre-incubated with recombinant COMMD4 for 30 min at 4 °C prior to addition of recombinant H2B. Proteins were captured using Streptavidin Dynabeads (ThermoFisher) or Protein A Dynabeads (ThermoFisher), washed three times in NP40 buffer, resuspended in 4X Leammli sample buffer (250 mM Tris pH 6.8, 8% SDS, […], 0.02% bromophenol blue, 8% β-mercaptoethanol) and immunoblotted with the indicated antibodies.
Fig. 2 In vitro binding of the H2B peptide. a In vitro binding of biotin-tagged H2B 10-amino acid peptide (H2BWTpep) and H2BMUT1pep (mutation of key amino acid) with COMMD4. […] FLAG-H2BWT and FLAG-H2BMUT1 were immunoprecipitated from HEK293T cells and the co-eluting proteins were immunoblotted with antibodies against […] and FLAG.

H2B = experiment: FLAG pull-down, COMMD4-FLAG versus A70K mutant with H2B; type: binding; settings: compared to COMMD4-FLAG
Procedure: as §1
Co-immunoprecipitations were performed as previously summarised, using ice-cold NP40 buffer. Assays for co-immunoprecipitations were performed at 4 °C from HEK293T, transiently expressing the FLAG-H2B WT or MUT plasmid. Proteins were captured using anti-FLAG M2 Dynabeads (ThermoFisher) and washed three times in NP40 buffer prior to analysis. […]

T1 sequence (Q9H0A8 whole entry): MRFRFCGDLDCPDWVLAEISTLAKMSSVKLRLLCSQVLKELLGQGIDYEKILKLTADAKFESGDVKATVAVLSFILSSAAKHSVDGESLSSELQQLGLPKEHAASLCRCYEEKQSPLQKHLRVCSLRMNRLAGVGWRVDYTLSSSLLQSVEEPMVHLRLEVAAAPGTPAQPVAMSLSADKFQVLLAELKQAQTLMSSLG

SFVNDIFERI [H2BWTpep]
EC50 (recombinant GST-COMMD4): 0.07 µM

CCAUGUCCCUCUCAGCAGA[dT][dT] [COMMD4 siRNA, reference compound]
γH2AX and MDC1 (DNA repair) foci (HBEC3-KT cells [1]): exhibited increased DNA repair foci
γH2AX and MDC1 (DNA repair) foci (NSCLC cells): significantly more γH2AX and MDC1 foci
sensitivity to ionising radiation (clonogenic viability) [2]: hypersensitive to IR compared to control siRNA treated cells
sensitivity to ionising radiation (clonogenic viability) (HBEC3-KT cells [3]): neither hypersensitive to IR

FLAG-H2BMUT1: corresponding mutant cloned into expression vector containing an N-terminal FLAG tag and a C-terminal nuclear localisation signal ({FLAG}-SFVNDKFERIAAKRVKLDS)
induction of apoptosis (HBEC3-KT cells [4]): no significant induction of apoptosis
γH2AX and MDC1 (DNA repair) foci (NSCLC cells): not FLAG-H2BMUT1, displayed a similar phenotype to COMMD4 siRNA depleted cells and had significantly more DNA repair foci

SFVNDKFERI [H2BMUT1pep]
peak ellipticity maximum ([5]; 1 mm path length): 190 nm
peak minimum ([5]; 1 mm path length): 202 nm
secondary structure / helicity [5]: possesses little helical structure even in 50% TFE
effect on COMMD4-H2B interaction (COMMD4-H2B interaction): did not affect the COMMD4-H2B interaction; also recorded: maintains the COMMD4-H2B interaction

A70K COMMD4-FLAG: COMMD4-FLAG construct mutated to harbour an A70K mutation
binding with H2B of COMMD4 mutant (H2B): showed reduced binding with H2B
